Active and inactive are the calls of the source. The rule behind the calls is not given here.
Assays:
Mus musculus [1] = assay: Anticonvulsant activity in Swiss albino mouse assessed as protection against subcutaneous pentylenetetrazol-induced seizures at 346 umol/kg, ip administered 30 mins before pentylenetetrazole challenge measured after 30 mins; format: functional
Mus musculus [2] = assay: Anticonvulsant activity in Swiss albino mouse assessed as protection against subcutaneous pentylenetetrazol-induced seizures at 346 umol/kg, ip administered 30 mins before pentylenetetrazole challenge measured after 30 mins relative to stiripentol; format: functional
Mus musculus [3] = assay: Anticonvulsant activity in Swiss albino mouse assessed as maximal electroshock-induced seizures at 346 umol/kg, ip administered 30 mins before electroshock challenge; format: functional
Mus musculus [4] = assay: Anticonvulsant activity in ip dosed Swiss albino mouse assessed as maximal electroshock-induced seizures administered 30 mins before electroshock challenge; format: functional
Mus musculus [5] = assay: Neurotoxicity in Swiss albino mouse assessed as effect on hindlimb grip strength at 346 umol/kg, sc administered measured every 15 mins for 2 hrs; format: toxicity, organism-based; details: in vivo
Mus musculus [6] = assay: Neurotoxicity in Swiss albino mouse assessed as climbing response to inverted mesh at 346 umol/kg, sc administered measured every 15 mins for 2 hrs by wire mesh grasping test; format: toxicity, organism-based; details: in vivo
Mus musculus [7] = assay: Anticonvulsant activity in Swiss albino mouse assessed as protection against subcutaneous pentylenetetrazol-induced seizures at 410 umol/kg, ip administered 30 mins before pentylenetetrazole challenge measured after 30 mins relative to stiripentol; format: functional
Mus musculus [8] = assay: Anticonvulsant activity in Swiss albino mouse assessed as protection against subcutaneous pentylenetetrazol-induced seizures at 410 umol/kg, ip administered 30 mins before pentylenetetrazole challenge measured after 30 mins; format: functional
Mus musculus [9] = assay: Anticonvulsant activity in Swiss albino mouse assessed as maximal electroshock-induced seizures at 410 umol/kg, ip administered 30 mins before electroshock challenge; format: functional
Mus musculus [10] = assay: Anticonvulsant activity in Swiss albino mouse assessed as protection against subcutaneous pentylenetetrazol-induced seizures at 330 umol/kg, ip administered 30 mins before pentylenetetrazole challenge measured after 30 mins; format: functional
Mus musculus [11] = assay: Anticonvulsant activity in Swiss albino mouse assessed as protection against subcutaneous pentylenetetrazol-induced seizures at 330 umol/kg, ip administered 30 mins before pentylenetetrazole challenge measured after 30 mins relative to stiripentol; format: functional
Mus musculus [12] = assay: Anticonvulsant activity in Swiss albino mouse assessed as maximal electroshock-induced seizures at 330 umol/kg, ip administered 30 mins before electroshock challenge; format: functional
Mus musculus [13] = assay: Anticonvulsant activity in Swiss albino mouse assessed as protection against subcutaneous pentylenetetrazol-induced seizures at 370 umol/kg, ip administered 30 mins before pentylenetetrazole challenge measured after 30 mins; format: functional
Mus musculus [14] = assay: Anticonvulsant activity in Swiss albino mouse assessed as protection against subcutaneous pentylenetetrazol-induced seizures at 370 umol/kg, ip administered 30 mins before pentylenetetrazole challenge measured after 30 mins relative to stiripentol; format: functional
Mus musculus [15] = assay: Anticonvulsant activity in Swiss albino mouse assessed as maximal electroshock-induced seizures at 370 umol/kg, ip administered 30 mins before electroshock challenge; format: functional, organism-based
Mus musculus [16] = assay: Anticonvulsant activity in Swiss albino mouse assessed as protection against subcutaneous pentylenetetrazol-induced seizures at 390 umol/kg, ip administered 30 mins before pentylenetetrazole challenge measured after 30 mins; format: functional
Mus musculus [17] = assay: Anticonvulsant activity in Swiss albino mouse assessed as protection against subcutaneous pentylenetetrazol-induced seizures at 390 umol/kg, ip administered 30 mins before pentylenetetrazole challenge measured after 30 mins relative to stiripentol; format: functional
Mus musculus [18] = assay: Anticonvulsant activity in Swiss albino mouse assessed as maximal electroshock-induced seizures at 390 umol/kg, ip administered 30 mins before electroshock challenge; format: functional, organism-based
Mus musculus [19] = assay: Anticonvulsant activity in Swiss albino mouse assessed as protection against subcutaneous pentylenetetrazol-induced seizures at 340 umol/kg, ip administered 30 mins before pentylenetetrazole challenge measured after 30 mins; format: functional
Mus musculus [20] = assay: Anticonvulsant activity in Swiss albino mouse assessed as protection against subcutaneous pentylenetetrazol-induced seizures at 340 umol/kg, ip administered 30 mins before pentylenetetrazole challenge measured after 30 mins relative to stiripentol; format: functional
Mus musculus [21] = assay: Anticonvulsant activity in Swiss albino mouse assessed as maximal electroshock-induced seizures at 340 umol/kg, ip administered 30 mins before electroshock challenge; format: functional
Mus musculus [22] = assay: Anticonvulsant activity in Swiss albino mouse assessed as protection against subcutaneous pentylenetetrazol-induced seizures at 357 umol/kg, ip administered 30 mins before pentylenetetrazole challenge measured after 30 mins; format: functional
Mus musculus [23] = assay: Anticonvulsant activity in Swiss albino mouse assessed as protection against subcutaneous pentylenetetrazol-induced seizures at 357 umol/kg, ip administered 30 mins before pentylenetetrazole challenge measured after 30 mins relative to stiripentol; format: functional
Mus musculus [24] = assay: Anticonvulsant activity in Swiss albino mouse assessed as maximal electroshock-induced seizures at 357 umol/kg, ip administered 30 mins before electroshock challenge; format: functional

**Q.** CC(C)(C)C(/C=C/c1ccc2c(c1)OCO2)=N/NC(N)=O was tested. Which Activity (Mus musculus [1]) did it give?
**A.** 50%

**Q.** What about the Activity (Mus musculus [2]) of the same compound?
**A.** 1.42%

**Q.** And the Activity (Mus musculus [3])?
**A.** 100%

**Q.** And the ED50 (Mus musculus [4])?
**A.** 87 mg/kg

**Q.** And the Activity (Mus musculus [5])?
**A.** Toxic

**Q.** And the Activity (Mus musculus [6])?
**A.** Toxic

**Q.** CC(C)(C)C(/C=C/c1ccc2c(c1)OCO2)=N/NC(=O)Nc1ccccc1 was tested. Which Activity (Mus musculus [7]) did it give?
**A.** 1.3%

**Q.** And the Activity (Mus musculus [8])?
**A.** 66%

**Q.** And the Activity (Mus musculus [9])?
**A.** inactive

**Q.** Which results are given for CC(C)(C)C(/C=C/c1ccc2c(c1)OCO2)=N/NC(=O)Nc1ccc(Br)cc1?
**A.** Activity (Mus musculus [10]): 66%; Activity (Mus musculus [11]): 1.6%; Activity (Mus musculus [12]): 16%

**Q.** How did the Activity (Mus musculus [13]) turn out when CC(C)(C)C(/C=C/c1ccc2c(c1)OCO2)=N/NC(=O)Nc1ccc(Cl)cc1 was run?
**A.** 33%

**Q.** And the Activity (Mus musculus [14])?
**A.** 1.15%

**Q.** What about the Activity (Mus musculus [15]) of the same compound?
**A.** inactive

**Q.** How did the Activity (Mus musculus [16]) turn out when Cc1ccc(NC(=O)N/N=C(\C=C\c2ccc3c(c2)OCO3)C(C)(C)C)cc1 was run?
**A.** 16%

**Q.** What about the Activity (Mus musculus [17]) of the same compound?
**A.** 0.98 ratio to stiripentol

**Q.** What about the Activity (Mus musculus [18]) of the same compound?
**A.** inactive

**Q.** With Cc1ccccc1NC(=O)N/N=C(\C=C\c1ccc2c(c1)OCO2)C(C)(C)C as the compound, how does the Activity (Mus musculus [16]) read?
**A.** 83%

**Q.** What about the Activity (Mus musculus [17]) of the same compound?
**A.** 1.48 ratio to stiripentol

**Q.** And the Activity (Mus musculus [18])?
**A.** inactive

**Q.** CC(C)(C)C(/C=C/c1ccc2c(c1)OCO2)=N/NC(=O)Nc1ccc(Cl)cc1Cl was tested. Which Activity (Mus musculus [19]) did it give?
**A.** 33%

**Q.** And the Activity (Mus musculus [20])?
**A.** 1.26%

**Q.** And the Activity (Mus musculus [21])?
**A.** 16%

**Q.** Which results are given for CC(C)(C)C(/C=C/c1ccc2c(c1)OCO2)=N/NC(=O)Nc1ccc(F)cc1?
**A.** Activity (Mus musculus [16]): 50%; Activity (Mus musculus [17]): 1.26 ratio to stiripentol; Activity (Mus musculus [18]): inactive

**Q.** Which Activity (Mus musculus [7]) does the source give for Cc1ccccc1C(=O)N1N=C(C(C)(C)C)CC1c1ccc2c(c1)OCO2 (racemic) here?
**A.** inactive

**Q.** And the Activity (Mus musculus [8])?
**A.** inactive

**Q.** And the Activity (Mus musculus [9])?
**A.** 16%

**Q.** CC(C)(C)C1=NN(C(=O)c2ccc(Cl)cc2Cl)C(c2ccc3c(c2)OCO3)C1 (racemic) was tested. Which Activity (Mus musculus [22]) did it give?
**A.** 33%

**Q.** And the Activity (Mus musculus [23])?
**A.** 1.19%

**Q.** What about the Activity (Mus musculus [24]) of the same compound?
**A.** 16%

**Q.** What does the source list for CC(C)(C)C1=NN(C(=O)Nc2ccccc2)C(c2ccc3c(c2)OCO3)C1 (racemic)?
**A.** Activity (Mus musculus [7]): 1.3%; Activity (Mus musculus [8]): 66%; Activity (Mus musculus [9]): 16%

**Q.** What does the source list for CC(C)(C)C1=NN(C(=O)Nc2ccc(Br)cc2)C(c2ccc3c(c2)OCO3)C1 (racemic)?
**A.** Activity (Mus musculus [10]): 33%; Activity (Mus musculus [11]): 1.29%; Activity (Mus musculus [12]): inactive
